# Reference: patent US10213451B2, “Methods and compounds for modulating the secretion or expression of adhesion proteins or angiopoietins of cells” (PACIFIC ARROW LIMITED, priority 2004, dated 2019)
# Tested on: collagen expression in ES2 cells
# Test: Microarray gene expression, Table 5
# Format: cell-based, human
# Settings: for PLOD1 procollagen-lysine 1,2-oxoglutarate 5-dioxygenase 1, gene expression ratio to no drug control (D): probe 200827_at; for COL6A3 collagen, type VI, alpha 3, gene expression ratio to no drug control (D): probe 201438_at; for PLOD3 procollagen-lysine, 2-oxoglutarate 5-dioxygenase 3, gene expression ratio to no drug control (D): probe 202185_at; for COL1A1 collagen, type I, alpha 1, gene expression ratio to no drug control (D): probe 202311_s_at; for PCOLCE procollagen C-endopeptidase enhancer, gene expression ratio to no drug control (D): probe 202465_at; for P4HA1 procollagen-proline, 2-oxoglutarate 4-dioxygenase, alpha polypeptide I, gene expression ratio to no drug control (D): probe 207543_s_at; for COL18A1 collagen, type XVIII, alpha 1, gene expression ratio to no drug control (D): probe 209081_s_at; for COL4A2 collagen, type IV, alpha 2, gene expression ratio to no drug control (D): probe 211966_at; for COL4A1 collagen, type IV, alpha 1, gene expression ratio to no drug control (D): probe 211981_at; for COL6A1 collagen, type VI, alpha 1, gene expression ratio to no drug control (D): probe 212091_s_at; for COL4A5 collagen, type IV, alpha 5 (Alport syndrome), gene expression ratio to no drug control (D): probe 213110_s_at; for COL6A2 collagen, type VI, alpha 2, gene expression ratio to no drug control (D): probe 213290_at; for COL4A6 collagen, type IV, alpha 6, gene expression ratio to no drug control (D): probe 213992_at; for COL10A1 collagen, type X, alpha 1, gene expression ratio to no drug control (D): probe 217428_s_at; for COL12A1 collagen, type XII, alpha 1, gene expression ratio to no drug control (D): probe 231766_s_at; for CCBE1 collagen and calcium binding EGF domains 1, gene expression ratio to no drug control (D): probe 242324_x_at; for expression ratio to the control, collagen: span over probes of Table 5
# Experimental: Y/D is the ratio (in folds) of gene expression in cells treated with compound Y as compared with those of the no drug control (D),
# YM/D is the ratio of gene expression in cells treated with compound YM (ACH-Y, Y without sugar moiety) compared with those of the no drug control (D)
# Cell culture and drug-treatment.: ES2 cells were seeded in a T-25 flask with 4.5 million cells per flask for 24 hours. Cell culture was replaced with fresh medium with xanifolia-Y (Y) or DMSO no drug control (D) for 24 hours. Cells were then harvested for RNA isolation. Three experiments were done.
# RNA extraction, labeling, hybridization, and data analysis. RNA was extracted from tumor cells using the Qiagen RNeasy Kit. RNA quality and quantity was checked by the Agilent BioAnalyzer and the NanoDrop® ND-1000 spectrophotometer respectively before further manipulation. The first and second cDNA strands were synthesized from 20 ng of total RNA using the Affymetrix T7 oligo(dT) primer protocol and kit for the two-cycle amplification. To produce amplified biotin-labeled-cRNA, the cDNA was […] by in vitro transcription using the MegaScript kit from Ambion. 15.0 μg of the labeled cRNA was fragmented and re-checked for concentration using the NanoDrop® ND-1000 spectrophotometer. A hybridization cocktail containing Affymetrix spike-in controls and fragmented labeled cRNA was loaded onto the Human U133 Plus 2.0 GeneChip® oligonucleotide array. The Affymetrix array (Affymetrix, Inc. Santa Clara, Calif.) is comprised of over 1,300,000 unique oligonucleotide features that represent greater than 38,500 well-substantiated human genes. The array was hybridized for 16 hours at 45° C. with rotation at 60 rpm then washed and stained with a strepavidin, R-phycoerythrin conjugate stain on the Affymetrix Fluidicis Station 450. Signal amplification was done using biotinylated antistreptavidin. The arrays were scanned using the GeneChip® 3000 confocal laser scanner with autoloader. The images were analyzed and quality control metrics recorded using Affymetrix GCOS software version 1.4. Lastly, the expression value for each gene was calculated using dChip PM-only model based or Plier algorithm.
# Pairwise comparisons were made as follows: Treated vs. Control (Y vs. D), Modified Drug vs Control (YM/ACY-H vs. D) and Treated vs. Modified Drug (Y vs. YM/ACH-Y) Cel files analyzed using the Bioconductor package of R Statistical programming. Limma analysis generated a reasonable number of changing genes between the samples.
# The raw data in the .CEL files were normalized by the GCRMA method (robust multi-array analysis). It is implemented in Bioconductor (http://www.bioconductor.org/). The raw signal intensity data were normalized, background corrected and summarized based on certain statistical models, and an expression value, in log 2-scale, is obtained per chip per probe set. Then the null hypothesis was tested that there's no significant changes in gene expression between the treatment pairs. This was done by LIMMA and is also implemented in Bioconductor. It uses empirical Bayes method to estimate the variance in gene expression. One comparison was made, namely, High Grade vs. Low Grade. The raw p-values were adjusted by the Benjamnin-Hochberg method for false discovery rate (FDR) control. All data sets contained a significant number of genes with a p-value less than 0.05, which is that the probability that a gene is NOT differential expressed (false positive) is 1:20.
SMILES,"P4HB procollagen-proline, 2-oxoglutarate 4-dioxygenase, beta polypeptide, gene expression ratio to no drug control (D) (probe 200654_at) [folds]","P4HB procollagen-proline, 2-oxoglutarate 4-dioxygenase, beta polypeptide, gene expression ratio to no drug control (D) (probe 200656_s_at) [folds]","PLOD1 procollagen-lysine 1,2-oxoglutarate 5-dioxygenase 1, gene expression ratio to no drug control (D) [folds]","COL6A3 collagen, type VI, alpha 3, gene expression ratio to no drug control (D) [folds]","PLOD3 procollagen-lysine, 2-oxoglutarate 5-dioxygenase 3, gene expression ratio to no drug control (D) [folds]","COL1A1 collagen, type I, alpha 1, gene expression ratio to no drug control (D) [folds]","PCOLCE procollagen C-endopeptidase enhancer, gene expression ratio to no drug control (D) [folds]","PLOD2 procollagen-lysine, 2-oxoglutarate 5-dioxygenase 2, gene expression ratio to no drug control (D) (probe 202619_s_at) [folds]","PLOD2 procollagen-lysine, 2-oxoglutarate 5-dioxygenase 2, gene expression ratio to no drug control (D) (probe 202620_s_at) [folds]","P4HA2 procollagen-proline, 2-oxoglutarate 4-dioxygenase, alpha polypeptide II, gene expression ratio to no drug control (D) (probe 202733_at) [folds]","COL5A1 collagen, type V, alpha 1, gene expression ratio to no drug control (D) (probe 203325_s_at) [folds]","P4HA1 procollagen-proline, 2-oxoglutarate 4-dioxygenase, alpha polypeptide I, gene expression ratio to no drug control (D) [folds]","COL13A1 collagen, type XIII, alpha 1, gene expression ratio to no drug control (D) (probe 208535_x_at) [folds]","COL18A1 collagen, type XVIII, alpha 1, gene expression ratio to no drug control (D) [folds]","COL13A1 collagen, type XIII, alpha 1, gene expression ratio to no drug control (D) (probe 211343_s_at) [folds]","COL13A1 collagen, type XIII, alpha 1, gene expression ratio to no drug control (D) (probe 211809_x_at) [folds]","COL4A2 collagen, type IV, alpha 2, gene expression ratio to no drug control (D) [folds]","COL4A1 collagen, type IV, alpha 1, gene expression ratio to no drug control (D) [folds]","COL6A1 collagen, type VI, alpha 1, gene expression ratio to no drug control (D) [folds]","COL5A1 collagen, type V, alpha 1, gene expression ratio to no drug control (D) (probe 212489_at) [folds]",also measured
"C/C=C(/C)C(=O)O[C@H]1[C@H](OC(=O)/C(C)=C\C)[C@@]2(CO)C(CC1(C)C)C1=CCC3[C@@]4(C)CC[C@H](O[C@@H]5OC(C(=O)O)[C@@H](O)C(O[C@@H]6O[C@@H](CO)C(O)C6O)C5O[C@@H]5OC(CO)[C@H](O)C(O)C5O)C(C)(C)C4CC[C@@]3(C)[C@]1(C)[C@@H](O)[C@H]2O (stereo partly drawn) [Xanifolia-Y, 3-O-[β-D-galactopyranosyl (1→2)]-α-L-arabinofuranosy (1→3)-β-D-glucuronopyranosyl-21,22-O-diangeloyl-3β, 15α, 16α, 21β, 22α, 28-hexahydroxyolean-12-ene]",−1.6,−1.8,−1.7,−2.4,−1.3,−1.6,−1.3,−1.7,−1.4,−1.4,−1.7,−2.0,−1.4,−1.7,−1.9,−2.0,−1.8,−1.6,−1.6,−1.5,"COL4A5 collagen, type IV, alpha 5 (Alport syndrome), gene expression ratio to no drug control (D): −1.6 folds; COL6A2 collagen, type VI, alpha 2, gene expression ratio to no drug control (D): −1.6 folds; COL4A6 collagen, type IV, alpha 6, gene expression ratio to no drug control (D): −2.0 folds; COL10A1 collagen, type X, alpha 1, gene expression ratio to no drug control (D): −3.0 folds; COL5A2 collagen, type V, alpha 2, gene expression ratio to no drug control (D) (probe 221729_at): −1.3 folds; COL5A2 collagen, type V, alpha 2, gene expression ratio to no drug control (D) (probe 221730_at): −1.6 folds; COL12A1 collagen, type XII, alpha 1, gene expression ratio to no drug control (D): −2.8 folds; CCBE1 collagen and calcium binding EGF domains 1, gene expression ratio to no drug control (D): −1.3 folds; COL5A1 collagen, type V, alpha 1, gene expression ratio to no drug control (D) (probe 1556138_a_at): −2.2 folds; P4HA2 procollagen-proline, 2-oxoglutarate 4-dioxygenase, alpha polypeptide II, gene expression ratio to no drug control (D) (probe 1568611_at): −1.3 folds; expression ratio to the control, collagen: −1.3 to −3.0 folds"
C/C=C(/C)C(=O)O[C@H]1[C@H](OC(=O)/C(C)=C\C)[C@@]2(CO)C(CC1(C)C)C1=CCC3[C@@]4(C)CC[C@H](O)C(C)(C)C4CC[C@@]3(C)[C@]1(C)[C@@H](O)[C@H]2O (some centres unmarked) [ACH-Y],−1.3,−1.2,−1.2,−1.5,−1.1,−3.6,−1.6,−1.2,−1.3,−1.9,−2.8,−1.5,−1.2,−1.5,−1.7,−1.5,−1.7,−2.2,−1.9,−4.1,"COL4A5 collagen, type IV, alpha 5 (Alport syndrome), gene expression ratio to no drug control (D): −2.2 folds; COL6A2 collagen, type VI, alpha 2, gene expression ratio to no drug control (D): −1.5 folds; COL4A6 collagen, type IV, alpha 6, gene expression ratio to no drug control (D): −1.9 folds; COL10A1 collagen, type X, alpha 1, gene expression ratio to no drug control (D): −1.2 folds; COL5A2 collagen, type V, alpha 2, gene expression ratio to no drug control (D) (probe 221729_at): −1.8 folds; COL5A2 collagen, type V, alpha 2, gene expression ratio to no drug control (D) (probe 221730_at): −1.6 folds; COL12A1 collagen, type XII, alpha 1, gene expression ratio to no drug control (D): −2.4 folds; CCBE1 collagen and calcium binding EGF domains 1, gene expression ratio to no drug control (D): −1.8 folds; COL5A1 collagen, type V, alpha 1, gene expression ratio to no drug control (D) (probe 1556138_a_at): −2.8 folds; P4HA2 procollagen-proline, 2-oxoglutarate 4-dioxygenase, alpha polypeptide II, gene expression ratio to no drug control (D) (probe 1568611_at): −2.4 folds; expression ratio to the control, collagen: −1.1 to −3.6 folds"
